Measured values: patent US8889714B2, “3,4-substituted piperidine derivatives as renin inhibitors” (Actelion Pharmaceuticals Ltd., priority 2008, dated 2014)
Read-outs that look alike come from different tables or passages of the source.

Tests used:
Human recombinant renin = target: T1, Human recombinant renin (Homo sapiens, UniProt P00797); assay: Inhibition of human recombinant renin (buffer); type: biochemical; settings: 100 pM renin, 50 mM MOPS pH 7.4, 37° C., 3 hours
T1 construct: purchased Proteos
T1 sequence (P00797 67-406): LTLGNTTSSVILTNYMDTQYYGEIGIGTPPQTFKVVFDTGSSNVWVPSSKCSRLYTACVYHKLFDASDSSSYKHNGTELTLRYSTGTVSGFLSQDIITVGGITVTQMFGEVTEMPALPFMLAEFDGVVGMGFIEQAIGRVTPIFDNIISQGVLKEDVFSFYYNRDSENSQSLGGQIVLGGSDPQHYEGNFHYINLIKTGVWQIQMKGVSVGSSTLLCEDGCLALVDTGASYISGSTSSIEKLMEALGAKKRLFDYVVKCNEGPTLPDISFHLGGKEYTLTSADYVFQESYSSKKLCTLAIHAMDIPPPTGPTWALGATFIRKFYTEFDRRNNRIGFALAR
Description: Fluorescence is measured at times 0 and 3 hours with a SpectraMax Gemini EM reader set at an excitation wavelength of 328 nm and at an emission wavelength of 388 nm. Background fluorescence at t=0 is subtracted from the measurement at t=3 hours. Inhibitory activity of the compounds is expressed as IC50.

[1] = target: T2, recombinant renin in human plasma (Homo sapiens, UniProt P00797); assay: Inhibition of renin in human plasma; type: biochemical; settings: human EDTA plasma, 1 nM recombinant renin added, 37° C., 1 hour
T2 construct: purchased Proteos
T2 sequence (P00797 67-406): T1 sequence (P00797 67-406)
Description: Human EDTA-collected plasma is rapidly thawed in warm water and centrifuged at 2900 g for 15 minutes at 4° C. The supernatant is collected and recombinant renin (Proteos) is added at a final concentration of 1 nM. […] The plate is incubated at 37° C. for 1 hour. […] Background fluorescence at t=0 is subtracted from the measurement at t=1 hour. Inhibitory activity of the compounds is expressed as IC50.

[2] = read-out: Human Renin IC50 (buffer)
[3] = read-out: Human Renin IC50 (plasma)

IC50 (Human recombinant renin; [2]) [nM] | IC50 [1, 3] [nM] | IC50 (Human recombinant renin; Human Renin IC50 (buffer)) [nM] | IC50 ([1]; Human Renin IC50 (plasma)) [nM] | SMILES
58 | 75 |  |  | COCCCn1cc(CN(C(=O)[C@@H]2CNCC[C@H]2c2ccn(C)c(=O)c2)C2CC2)c(=O)n(CCCOC)c1=O (relative stereo) [Example 79, trans-N-({1,3-Bis[3-(methyloxy)propyl]-2,4-dioxo-1,2,3,4-tetrahydro-5-pyrimidinyl}methyl)-N-cyclopropyl-4-(1-methyl-2-oxo-1,2-dihydro-4-pyridinyl)-3-piperidinecarboxamide]
0.2 | 0.5 |  |  | Cn1ccc([C@@H]2CCNC[C@H]2C(=O)N(Cc2cn(Cc3ccncc3)c3cccc(F)c23)C2CC2)cc1=O (relative stereo) [Example 77, trans-N-Cyclopropyl-N-{[4-fluoro-1-(4-pyridinylmethyl)-1H-indol-3-yl]methyl}-4-(1-methyl-2-oxo-1,2-dihydro-4-pyridinyl)-3-piperidinecarboxamide]
3.6 | 16.2 |  |  | COCCCc1ccc2c(c1)C(N(C(=O)[C@H]1CNCCC1c1ccn(C)c(=O)c1)C1CC1)CCC2 (single isomer, unassigned) [Example 100 Diastereomer B, trans-N-Cyclopropyl-N-[7-(3-methoxypropyl)-1,2,3,4-tetrahydro-1-naphthalenyl]-4-(1-methyl-2-oxo-1,2-dihydro-4-pyridinyl)-3-piperidinecarboxamide]
1.4 | 3 |  |  | COCCCc1cc(CN(C(=O)[C@@H]2CNCC[C@H]2c2ccn(C)c(=O)c2)C2CC2)c2ccccc2n1 (relative stereo) [Example 25, trans-N-Cyclopropyl-4-(1-methyl-2-oxo-1,2-dihydro-4-pyridinyl)-N-({2-[3-(methyloxy)propyl]-4-quinolinyl}methyl)-3-piperidinecarboxamide]
0.9 | 1.3 |  |  | COCCCc1cc(CN(C(=O)[C@H]2CNCC[C@@H]2c2ccn(C)c(=O)c2)C2CC2)cc(Br)c1C (relative stereo) [Example 85, trans-N-({3-Bromo-4-methyl-5-[3-(methyloxy)propyl]phenyl}methyl)-N-cyclopropyl-4-(1-methyl-2-oxo-1,2-dihydro-4-pyridinyl)-3-piperidinecarboxamide]
0.2 | 0.5 |  |  | COCCCc1cc(CCCOC)c(Cl)c(CN(C(=O)[C@H]2CNCC[C@@H]2c2ccn(C)c(=O)c2)C2CC2)c1 (relative stereo) [Example 89, trans-N-[2-Chloro-3,5-bis(3-methoxypropyl)benzyl]-N-cyclopropyl-4-(1-methyl-2-oxo-1,2-dihydro-4-pyridinyl)-3-piperidinecarboxamide]
4.7 | 12.3 |  |  | COCCCc1ccc(SC)c(CN(C(=O)[C@H]2CNCC[C@@H]2c2ccn(C)c(=O)c2)C2CC2)c1 (relative stereo) [Example 84, trans-N-Cyclopropyl-4-(1-methyl-2-oxo-1,2-dihydro-4-pyridinyl)-N-{[5-[3-(methyloxy)propyl]-2-(methylthio)phenyl]methyl}-3-piperidinecarboxamide]
0.06 | 0.6 |  |  | Cn1ccc([C@@H]2CCNC[C@H]2C(=O)N(Cc2cn(Cc3cccc(F)c3)c3cccc(F)c23)C2CC2)cc1=O (relative stereo) [Example 68, trans-N-Cyclopropyl-N-({4-fluoro-1-[(3-fluorophenyl)methyl]-1H-indol-3-yl]methyl}-4-(1-methyl-2-oxo-1,2-dihydro-4-pyridinyl)-3-piperidinecarboxamide]
< 0.06 | 0.5 |  |  | Cn1ccc([C@@H]2CCNC[C@H]2C(=O)N(Cc2cn(Cc3cccc(F)c3)c3cccc(Br)c23)C2CC2)cc1=O (relative stereo) [Example 73, trans-N-({4-Bromo-1-[(3-fluorophenyl)methyl]-1H-indol-3-yl}methyl)-N-cyclopropyl-4-(1-methyl-2-oxo-1,2-dihydro-4-pyridinyl)-3-piperidinecarboxamide]
0.3 | 1.3 |  |  | COCCCc1cc(Cl)c(Cl)c(CN(C(=O)[C@@H]2CNCC[C@H]2c2ccn(C)c(=O)c2)C2CC2)c1 (relative stereo) [Example 5, trans-N-Cyclopropyl-N-({2,3-dichloro-5-[3-(methyloxy)propyl]phenyl}methyl)-4-(1-methyl-2-oxo-1,2-dihydro-4-pyridinyl)-3-piperidinecarboxamide]
12.7 | 8.4 |  |  | Cn1ccc([C@@H]2CCNC[C@H]2C(=O)N(Cc2c[nH]c3cccc(F)c23)C2CC2)cc1=O (relative stereo) [Example 75, trans-N-Cyclopropyl-N-[(4-fluoro-1H-indol-3-yl)methyl]-4-(1-methyl-2-oxo-1,2-dihydro-4-pyridinyl)-3-piperidinecarboxamide]
7.5 | 21 |  |  | Cc1cc(Cc2ccccc2)cc(CN(C(=O)[C@@H]2CNCC[C@H]2c2ccn(C)c(=O)c2)C2CC2)c1 (relative stereo) [Example 104, trans-N-(3-Benzyl-5-methylbenzyl)-N-cyclopropyl-4-(1-methyl-2-oxo-1,2-dihydro-4-pyridinyl)-3-piperidinecarboxamide]
 |  | 5.3 | 2.4 | COCCNc1cc(CN(C(=O)[C@@H]2CNCC[C@H]2c2ccn(C)c(=O)c2)C2CC2)c2ccccc2c1 (relative stereo) [Example 36, trans-N-Cyclopropyl-4-(1-methyl-2-oxo-1,2-dihydro-4-pyridinyl)-N-[(3-{[2-(methyloxy)ethyl]amino}-1-naphthalenyl)methyl]-3-piperidinecarboxamide]
200 | 460 |  |  | CCn1ccc([C@@H]2CCNC[C@H]2C(=O)N(Cc2cc(CCCOC)cc(OCCOC)c2)C2CC2)cc1=O (relative stereo) [Example 12, trans-N-Cyclopropyl-4-(1-ethyl-2-oxo-1,2-dihydro-4-pyridinyl)-N-({3-{[2-(methyloxy)ethyl]oxy}-5-[3-(methyloxy)propyl]phenyl}methyl)-3-piperidinecarboxamide]
8.4 | 17 |  |  | Cn1ccc(C2CCNC[C@@H]2C(=O)N(Cc2cc(CCC#N)cc(Cl)c2Cl)C2CC2)cc1=O (stereo in doubt) [Example 30, trans-N-Cyclopropyl-N-{[2,3-dichloro-5-(2-cyanoethyl)phenyl]methyl}-4-(1-methyl-2-oxo-1,2-dihydro-4-pyridinyl)-3-piperidinecarboxamide]
0.3 | 1.2 |  |  | COCCCc1ccc2c(c1)C(N(C(=O)[C@H]1CNCCC1c1ccn(C)c(=O)c1)C1CC1)CCC2 (single isomer, unassigned) [Example 100 Diastereomer A, trans-N-Cyclopropyl-N-[7-(3-methoxypropyl)-1,2,3,4-tetrahydro-1-naphthalenyl]-4-(1-methyl-2-oxo-1,2-dihydro-4-pyridinyl)-3-piperidinecarboxamide]
0.3 | 1.4 |  |  | Cc1c(Br)cc(CN(C(=O)[C@@H]2CNCC[C@H]2c2ccn(C)c(=O)c2)C2CC2)cc1CCCOC(F)F (relative stereo) [Example 103, trans-N-{3-Bromo-5-[3-(difluoromethoxy)propyl]-4-methylbenzyl}-N-cyclopropyl-4-(1-methyl-2-oxo-1,2-dihydro-4-pyridinyl)-3-piperidinecarboxamide]
25 | 80 |  |  | COCCCc1cc(CN(C(=O)[C@@H]2CNCC[C@H]2c2cc(=O)n(C)c(C)c2C)C2CC2)cc(OCCOC)c1 (relative stereo) [Example 13, trans-N-Cyclopropyl-N-({3-{[2-(methyloxy)ethyl]oxy}-5-[3-(methyloxy)propyl]phenyl}methyl)-4-(1,5,6-trimethyl-2-oxo-1,2-dihydro-4-pyridinyl)-3-piperidinecarboxamide]
0.4 | 1.8 |  |  | COCCCc1cc(CN(C(=O)[C@@H]2CNCC[C@H]2c2ccn(C)c(=O)c2)C2CC2)c2ccccc2c1 (relative stereo) [Example 18, trans-N-Cyclopropyl-4-(1-methyl-2-oxo-1,2-dihydro-4-pyridinyl)-N-({3-[3-(methyloxy)propyl]-1-naphthalenyl}methyl)-3-piperidinecarboxamide]
1.3 | 3.2 |  |  | COCCc1ccc(Cl)c(CN(C(=O)[C@H]2CNCC[C@]2(OC)c2ccn(C)c(=O)c2)C2CC2)c1 (relative stereo) [Example 109]
0.3 | 0.9 |  |  | COCCCn1cc(CN(C(=O)[C@@H]2CNCC[C@H]2c2ccn(C)c(=O)c2)C2CC2)c2c(F)cccc21 (relative stereo) [Example 69, trans-N-Cyclopropyl-N-({4-fluoro-1-[3-(methyloxy)propyl]-1H-indol-3-yl}methyl)-4-(1-methyl-2-oxo-1,2-dihydro-4-pyridinyl)-3-piperidinecarboxamide]
